Measured values published in patent US4233304A, “Pyridoxine derivatives” (Crinos Industria Farmacobiologica S.p.A., priority 1978, dated 1980).

How the values were obtained:
[1] = Analgesic activity, test of Randall and Selitto; type: in vivo; settings: rat, variation from algogenic stimulus vs controls
Method: Test of Randall and Selitto (Arch. Ing. Pharmacodyn., 111, 409, 1957) on the rat. The analgesic activity is expressed as a percent variation from the algogenic stimulus, after 3 and 5 hours with respect to the controls.

[2] = Anti-inflammatory activity, caraganin-edema test according to Winter et al; type: in vivo; settings: rat, vs controls
Description: As referred above, the inventive compound of the instant invention show anti-inflammatory activity and moreover may show, although not necessarily, also analgesic and/or anti-pyretic activity. The anti-inflammatory activity of the novel compounds of the instant invention has been confirmed by means of the caraganin-edema test on the rat.
Caraganin-edema test according to Winter et al (Proc. Soc. Exp. Biol. Med., 111, 544, 1962) in the normal rat. […]

in vivo = settings: rat, po
Method: The ulcer-causing activity has been determined by administering the substances per os to rats which have fasted 18 hours and evaluating the presence of gastric lesions 7 hours after the treatment. The UD50 has been determined according to Litchfield and Wilcoxon (J. Pharmacol. Exp. Ther. 96, 99, 1949).

[3] = Acute toxicity per os, single dose, LD50; settings: mouse, in vivo, po
Method: The acute toxicity has been determined by administering the substances per os in a sole dose to the mouse after 18 hours of fasting. The LD50 has been determined according to Litchfield and Wilcoxon (J. Pharmacol. Exp. Ther. 96, 99, 1949).

mouse = settings: footnote (1) Adams S.S. et al., Tox. Appl. Pharmacol., 15, 310, 1969; cited from earlier work

SMILES	Analgesic activity Variation ([1]; 12.5 mg/kg per os, 3 hrs)	Analgesic activity Variation ([1]; 12.5 mg/kg per os, 5 hrs)	Analgesic activity Variation ([1]; 50 mg/kg per os, 3 hrs)	Analgesic activity Variation ([1]; 50 mg/kg per os, 5 hrs)	Anti-inflammatory Inhibition ([2]; 6.25 mg/kg per os, 3 hrs) [%]	Anti-inflammatory Inhibition ([2]; 6.25 mg/kg per os, 5 hrs) [%]	Anti-inflammatory Inhibition ([2]; 12.5 mg/kg per os, 3 hrs) [%]	Anti-inflammatory Inhibition ([2]; 12.5 mg/kg per os, 5 hrs) [%]	Anti-inflammatory Inhibition ([2]; 25 mg/kg per os, 3 hrs) [%]	Anti-inflammatory Inhibition ([2]; 25 mg/kg per os, 5 hrs) [%]	Anti-inflammatory Inhibition ([2]; 50 mg/kg per os, 3 hrs) [%]	Anti-inflammatory Inhibition ([2]; 50 mg/kg per os, 5 hrs) [%]	TD50 at 7 h (in vivo) [mg/kg]	LD50 [3] [mg/kg]	Anti-inflammatory Inhibition ([2]; 100 mg/kg per os, 3 hrs) [%]	Anti-inflammatory Inhibition ([2]; 100 mg/kg per os, 5 hrs) [%]	LD50 per os/mouse (mouse) [mg/kg]
Cc1ncc(COC(=O)C(C)c2ccc(CC(C)C)cc2)c(CO)c1O (stereo not drawn) [2-(4-isobutyl-phenyl)-propionic pyridoxine 5-ester]	+61.2%	+71.4%	+129.6%	+134.3%	27.1	24.8	41.1	28.4	48.6	37.6	55.1	42	365	> 2000			
Cc1ncc(COC(=O)C(C)c2ccc(CC(C)C)cc2)c2c1OC(C)(C)OC2 (stereo not drawn) [2-(4-isobutylphenyl)-propionic isopropylidenepyridoxine 5-ester]	+77.5%	+39.0%	+122.5%	+78.1%			19.6	18.3	13.1	12.8	43.9	39.4	> 400	> 2200	60.7	42.2	
CC(C)Cc1ccc(C(C)C(=O)O)cc1 (stereo not drawn) [2-(4-isobutylphenyl)-propionic acid, reference compound]	+86.7%	+83.8%	+146.9%	+69.5%			33.6	16.5	43.9	19.3	54.2	26.6	38		49.5	32.1	800
